# Test results as given in publication doi:10.1101/530550v1 (biorxiv, 2019).
# Tested on: 2,5DHP dioxygenase (PicD)
# Experiment: spectrophotometric […],5DHP disappearance at […] nm
# Assay type: biochemical, Alcaligenes faecalis
# Conditions: 1 mM Fe2+; 50 mM PBS pH 7.0; 25 °C
structure (smiles),measurement,value
"Oc1ccc(O)nc1 [2,5DHP, 2,5-dihydroxypyridine]",Km,65.7 ± 6.27 µM
